The results in this text go back to paper PMC6385020 (Molecules, 2019).

The test system of assay [1] is 22AG human telomeric sequence G4. As to the kind of experiment: TO G4-FID assay. It is filed as binding. The conditions noted are these: TO 2 eq, K+100 buffer. How it is done: (§1) For the G4-FID assay, the oligonucleotides were dissolved in K^+100 buffer (10 mM lithium cacodylate buffer pH 7.3, 100 mM KCl, 1% DMSO). Oligonucleotide concentrations were determined on the basis of their absorbance at 260 nm. For the fluorimetric titration, the oligonucleotides were dissolved in K^+100 buffer without DMSO. For the FRET-melting assay, the oligonucleotides were dissolved in K^+1 buffer (10 mM lithium cacodylate buffer pH 7.3, 1 mM KCl, 99 mM LiCl) except for F-21-T. F-21-T was dissolved in K^+10 buffer (10 mM lithium cacodylate buffer pH 7.3, 10 mM KCl, 90 mM LiCl).
(§2) Prior to use, all oligonucleotides were pretreated by heating at 95 °C for 5 min, then rapidly cooled to 4 °C to favor the intramolecular folding by kinetic trapping. Duplex-DNA ds26 was prepared by heating the self-complementary strand at 90 °C for 5 min in K^+1 buffer followed by a slow cooling over 6 h.
(§3) Each G4-FID assay was performed in a 96-well Non-Binding Surface black with black bottom polystyrene microplates (Corning). Every ligand was tested on a line of the microplate, in duplicate. The microplate was filled with (a) K^+100 solution (qs for 200 μL), (b) 10 μL of a solution of pre-folded oligonucleotides (5 μM) and fluorescent probe (TO/TO-PRO-3 (10 μM—2 eq) or PhenDV (7,5 µM—1.5 eq)), and (c) an extemporaneously prepared 5 μM ligand solution in K^+100 buffer (0 to 100 μL) along the line of the microplate, i.e., from column A to column H: 0, 0.125, 0.25, 0.375, 0.5, 0.625, 0.75, 1.0, 1.25, 1.5, 2.0, and 2.5 μM. After 5 min of orbital shaking at 500 rpm, fluorescence is measured using the following experimental parameters: positioning delay of 0.5 s, 20 flashes per well, emission/excitation filters for TO at 485/520, TO-PRO-3 at 620/670, and PhenDV at 355/520 gain adjusted at 80% of the fluorescence from the most fluorescent well (i.e., a well from column A for TO and a well from column H).
(§4) The percentage of TO displacement is calculated from the fluorescence intensity (F), using (1) % TO displacement=1−F/F0 where F0 is the fluorescence from the fluorescent probe bound to DNA without added ligand.
(§5) The PhenDV displacement is calculated from the fluorescence intensity F; F(ligand+probe), which refers to the fluorescence of the probe in presence of the ligand (without G4); and F0, which is the fluorescence without added ligand. The term F(ligand+probe) is necessary as the ligand can quench the fluorescence of the probe. The percentage of displacement is then plotted as a function of the concentration of the added ligand. The DNA affinity was evaluated by the concentration of ligand required to decrease the fluorescence of the probe by 50%, was noted DC50, and was determined after non-linear fitting of the displacement curve.

In assay [2] the test system is c-myc G4. As to the kind of experiment: TO G4-FID assay. In kind it is binding. The conditions noted are these: TO 2 eq, K+100 buffer. How it is done: as §1, §2, §3, §4, §5
Assay [3] relates to CEB25-WT minisatellite sequence G4. As to the kind of experiment: TO G4-FID assay. It is filed as binding. The settings on record: TO 2 eq, K+100 buffer. How it is done: as §1, §2, §3, §4, §5
The next assay concerns duplex ds26 DNA. The experiment in a line: TO G4-FID assay. The conditions noted are these: ds26, K+100 buffer. In kind it is binding. As to the method: as §1, §2
Each G4-FID assay was performed in a 96-well Non-Binding Surface black with black bottom polystyrene microplates (Corning). Every ligand was tested on a line of the microplate, in duplicate. […] After 5 min of orbital shaking at 500 rpm, fluorescence is measured using the following experimental parameters: positioning delay of 0.5 s, 20 flashes per well, emission/excitation filters for TO at 485/520, TO-PRO-3 at 620/670, and PhenDV at 355/520 gain adjusted at 80% of the fluorescence from the most fluorescent well (i.e., a well from column A for TO and a well from column H).
as §4
The PhenDV displacement is calculated from the fluorescence intensity F; F(ligand+probe), which refers to the fluorescence of the probe in presence of the ligand (without G4); and F0, which is the fluorescence without added ligand. The term F(ligand+probe) is necessary as the ligand can quench the fluorescence of the probe. […]

Assay [4] relates to 22AG human telomeric sequence G4. The experiment in a line: PhenDV G4-FID assay. In kind it is binding. The settings on record: PhenDV 1.5 eq, K+100 buffer. How it is done:
as §1, §2, §3
(§6) In the case of PhenDV, the fluorescence of the unbound probe is not negligible. The percentage of displacement becomes (2) % PhenDV Displacement=F−F0/Fligand+probe−F0
as §5

For assay [5], the system named is c-myc G4. The experiment in a line: PhenDV G4-FID assay. In kind it is binding. The conditions noted are these: PhenDV 1.5 eq, K+100 buffer. As to the method: as §1, §2, §3, §6, §5
Assay [6] has as its system CEB25-WT minisatellite sequence G4. The experiment in a line: PhenDV G4-FID assay. It is filed as binding. The conditions noted are these: PhenDV 1.5 eq, K+100 buffer. As to the method:
as §1, §2, §3, §6, §5

The test system of assay [7] is CEB25-WT (DNA, G4) AAGGGTGGGTGTAAGTGTGGGTGGGT
As to the kind of experiment: G4-FID, thiazole orange displacement. The conditions noted are these: 100 mM KCl; 10 mM lithium cacodylate pH 7.3, 1% DMSO; thiazole orange displaced; 1 µM compound, 0.25 µM DNA.

In assay [8] the test system is 22AG human telomeric sequence G4. As to the kind of experiment: TO-PRO-3 G4-FID assay. It is filed as binding. The settings on record: TO-PRO-3 2 eq, K+100 buffer. As to the method: as §1, §2, §3, §4, §5
The test system of assay [9] is c-myc G4. As to the kind of experiment: TO-PRO-3 G4-FID assay. In kind it is binding. The conditions noted are these: TO-PRO-3 2 eq, K+100 buffer. How it is done:
as §1, §2, §3, §4, §5

Assay [10] relates to CEB25-WT minisatellite sequence G4. The experiment in a line: TO-PRO-3 G4-FID assay. In kind it is binding. The settings on record: TO-PRO-3 2 eq, K+100 buffer. How it is done: as §1, §2, §3, §4, §5

“And” between values parts separate entries of the source, which are not always exact repeats. Equal entries are not always repeated.

For `[Cl-].[Cl][Pt+].c1ccc(-c2cc(-c3ccc(OCCN4CCCC4)cc3)nc(-c3ccccn3)n2)nc1` [Pt-cpym, Chloro-(2,4-di(pyridin-2-yl)-6-(4-(2-(pyrrolidin-1-yl)ethoxy)phenyl)pyrimidine)-platinum(II) Chloride], the “% of TO displacement at 1 µM of ligand” value is 67% in [1], 33% with c-myc G4 [2], 43% in assay [3] and 2% in the assay with duplex ds26 DNA. The “% of PhenDV displacement at 1 µM of ligand” value (“% of PhenDV displacement” below) is given as 43% in assay [4], 3% in the assay on c-myc G4 [5] and 33% in assay [6]. For the same molecule, the “% TO displacement” value in [7] is recorded as less than 60%. Moreover, the “% of TOPRO3 displacement at 1 µM of ligand” value (“% of TOPRO3 displacement” for short) in assay [8] turned out to be 25%.
For the molecule `CN(C)CCCNCc1ccc(-c2cc(-c3ccccn3)nc(-c3ccccn3)c2)cc1.[Cl-].[Cl][Pt+]` [Pt-ctpy], the “% of TO displacement at 1 µM of ligand” value in assay [1] was 88%; with c-myc G4 [2], 76%; in assay [3], 82%; with duplex ds26 DNA it was < 20% and 17%. The “% of PhenDV displacement” value was determined as 84% in [4], 29% in the assay on c-myc G4 [5] and 72% in assay [6]. The “% TO displacement” value in [7] is more than 80%. Besides, the “% of TOPRO3 displacement” value is listed as 78% in assay [8], 58% in the assay with c-myc G4 [9] and 76% in assay [10].
As for `[Cl-].[Cl][Pt+].c1ccc(-c2cccc(-c3ccccn3)n2)nc1` [Pt-tpy], the “% of TO displacement at 1 µM of ligand” value turned out to be 21% in [1], 41% with c-myc G4 [2] and 14% in assay [3]. The results for the “% of PhenDV displacement” value (in assay [4]; in the assay on c-myc G4 [5]; in [6]) were 24%, 5% and 13%, respectively. The “% of TOPRO3 displacement” value was 12% in [8] and 32% in the assay on c-myc G4 [9].
In the case of `Cc1ccc(-c2cc(-c3ccccn3)nc(-c3ccccn3)c2)cc1.[Cl-].[Cl][Pt+]` [Pt-ttpy], the “% of TO displacement at 1 µM of ligand” value in assay [1] was 80%; in the assay on c-myc G4 [2] it was 64%; in assay [3], 66%; in the assay on duplex ds26 DNA, less than 20%. The “% of PhenDV displacement” value came out at 63% in assay [4], 22% in the assay on c-myc G4 [5] and 45% in assay [6]. Also, the “% TO displacement” value in [7] is on record as more than 80%. Further, the figures for the “% of TOPRO3 displacement” value (in [8]; with c-myc G4 [9]; in assay [10]) were 65%, 76% and 62%, respectively.
For the molecule `CN(C)c1ccc(/C=C/c2cc(-c3ccccn3)nc(-c3ccccn3)n2)cc1.[Cl-].[Cl][Pt+]` [Pt-vpym, Chloro-(E)-4-(2-(2,6-di(pyridin-2-yl)pyrimidin-4-yl)vinyl)-N,N-dimethylaniline-platinum(II) Chloride], the “% of TOPRO3 displacement” value in assay [8] is 28%; in the assay on c-myc G4 [9], 32%; in assay [10], 23%.
